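These data come from cells grown in 96-well plates and exposed to compound for 48 hours at five concentrations. The concentration for 50% growth inhibition is given as GI50. TGI: total growth inhibition.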
Legend:
Experiment in all cases: NCI tumour cell line growth inhibition, 48 h
[1] = test system: 786-0 renal
[2] = test system: A498 renal
[3] = test system: A549 NSCLC
[4] = test system: ACHN renal
[5] = test system: BT-549 breast
[6] = test system: CAKI-1 renal
[7] = test system: CCRF-CEM leukemia
[8] = test system: COLO 205 colon
[9] = test system: DU-145 prostate
[10] = test system: EKVX NSCLC
[11] = test system: HCC-2998 colon
[12] = test system: HCT-116 colon
[13] = test system: HCT-15 colon
[14] = test system: HL-60(TB) leukemia
[15] = test system: HOP-62 NSCLC
[16] = test system: HOP-92 NSCLC
[17] = test system: HS 578T breast
[18] = test system: HT29 colon
[19] = test system: IGROV1 ovarian
[20] = test system: K-562 leukemia
[21] = test system: KM12 colon
[22] = test system: LOX IMVI melanoma
[23] = test system: M14 melanoma
[24] = test system: MALME-3M melanoma
[25] = test system: MCF7 breast
[26] = test system: MDA-MB-231 breast
[27] = test system: MDA-MB-435
[28] = test system: MOLT-4 leukemia
[29] = test system: NCI-H226 lung
[30] = test system: NCI-H23 lung
[31] = test system: NCI-H460 lung
[32] = test system: NCI/ADR-RES ovarian
[33] = test system: OVCAR-3 ovarian
[34] = test system: OVCAR-4 ovarian
[35] = test system: OVCAR-5 ovarian
[36] = test system: OVCAR-8 ovarian
[37] = test system: PC-3 prostate
[38] = test system: RPMI-8226 leukemia
[39] = test system: RXF 393 renal
[40] = test system: SF-268 CNS
[41] = test system: SF-295 CNS
[42] = test system: SF-539 CNS
[43] = test system: SK-MEL-2 melanoma
[44] = test system: SK-MEL-28 melanoma
[45] = test system: SK-MEL-5 melanoma
[46] = test system: SK-OV-3 ovarian
[47] = test system: SN12C renal
[48] = test system: SNB-19 CNS
[49] = test system: SNB-75 CNS
[50] = test system: SR leukemia
[51] = test system: SW-620 colon
[52] = test system: T-47D breast
[53] = test system: TK-10 renal
[54] = test system: U251 CNS
[55] = test system: UACC-257 melanoma
[56] = test system: UACC-62 melanoma
[57] = test system: UO-31 renal

SMILES: C=C(C)[C@@H]1CC[C@]2(COS(C)(=O)=O)CC[C@]3(C)[C@H](CC[C@@H]4[C@@]5(C)CCCNC(C)(C)[C@@H]5CC[C@]43C)[C@@H]12
- GI50 [1]: 1800 nM
- TGI [1]: 3270 nM
- GI50 [2]: 1820 nM
- TGI [2]: 6160 nM
- GI50 [3]: 1820 nM
- TGI [3]: 3630 nM
- GI50 [4]: 1810 nM
- TGI [4]: 3200 nM
- GI50 [5]: 1990 nM
- TGI [5]: 4080 nM
- GI50 [6]: 1670 nM
- TGI [6]: 3190 nM
- GI50 [7]: 1760 nM
- TGI [7]: 4420 nM
- GI50 [8]: 1730 nM
- TGI [8]: 3270 nM
- GI50 [9]: 1810 nM
- TGI [9]: 3290 nM
- GI50 [10]: 1580 nM
- TGI [10]: 3140 nM
- GI50 [11]: 1740 nM
- TGI [11]: 3160 nM
- GI50 [12]: 1720 nM
- TGI [12]: 3240 nM
- GI50 [13]: 1570 nM
- TGI [13]: 3060 nM
- GI50 [14]: 1620 nM
- TGI [14]: 3390 nM
- GI50 [15]: 1670 nM
- TGI [15]: 3210 nM
- GI50 [16]: 1300 nM
- TGI [16]: 2810 nM
- GI50 [17]: 1850 nM
- TGI [17]: 3920 nM
- GI50 [18]: 1830 nM
- TGI [18]: 3550 nM
- GI50 [19]: 1770 nM
- TGI [19]: 3570 nM
- GI50 [20]: 1160 nM
- TGI [20]: 3060 nM
- GI50 [21]: 1830 nM
- TGI [21]: 3390 nM
- GI50 [22]: 1090 nM
- TGI [22]: 2370 nM
- GI50 [23]: 1780 nM
- TGI [23]: 3470 nM
- GI50 [24]: 1770 nM
- TGI [24]: 3730 nM
- GI50 [25]: 1590 nM
- TGI [25]: 3500 nM
- GI50 [26]: 1800 nM
- TGI [26]: 3310 nM
- GI50 [27]: 1640 nM
- TGI [27]: 3040 nM
- GI50 [28]: 1650 nM
- TGI [28]: 3620 nM
- GI50 [29]: 1770 nM
- TGI [29]: 3400 nM
- GI50 [30]: 1680 nM
- TGI [30]: 3340 nM
- GI50 [31]: 1800 nM
- TGI [31]: 3490 nM
- GI50 [32]: 1720 nM
- TGI [32]: 3270 nM
- GI50 [33]: 1790 nM
- TGI [33]: 3220 nM
- GI50 [34]: 1820 nM
- TGI [34]: 3650 nM
- GI50 [35]: 1680 nM
- TGI [35]: 3100 nM
- GI50 [36]: 1930 nM
- TGI [36]: 3770 nM
- GI50 [37]: 1590 nM
- TGI [37]: 3430 nM
- GI50 [38]: 2050 nM
- TGI [38]: 4620 nM
- GI50 [39]: 1660 nM
- TGI [39]: 3080 nM
- GI50 [40]: 2610 nM
- TGI [40]: 6490 nM
- GI50 [41]: 1820 nM
- TGI [41]: 3330 nM
- GI50 [42]: 1660 nM
- TGI [42]: 3080 nM
- GI50 [43]: 1690 nM
- TGI [43]: 3540 nM
- GI50 [44]: 1700 nM
- TGI [44]: 3220 nM
- GI50 [45]: 1730 nM
- TGI [45]: 3130 nM
- GI50 [46]: 6440 nM
- TGI [46]: 19600 nM
- GI50 [47]: 2280 nM
- TGI [47]: 5480 nM
- GI50 [48]: 1750 nM
- TGI [48]: 3280 nM
- GI50 [49]: 1370 nM
- TGI [49]: 3080 nM
- GI50 [50]: 1560 nM
- TGI [50]: 3520 nM
- GI50 [51]: 1680 nM
- TGI [51]: 3340 nM
- GI50 [52]: 1780 nM
- TGI [52]: 4000 nM
- GI50 [53]: 1680 nM
- TGI [53]: 3580 nM
- GI50 [54]: 1750 nM
- TGI [54]: 3290 nM
- GI50 [55]: 1990 nM
- TGI [55]: 4270 nM
- GI50 [56]: 1720 nM
- TGI [56]: 3140 nM
- GI50 [57]: 1270 nM
- TGI [57]: 2630 nM

Reference: PubChem BioAssay (NCI)
